Source: patent US7041131B2, “Bioengineered vascular graft support prostheses” (Organogenesis, Inc., priority 1998, dated 2006)

How the values were obtained:
[1] = system: tube supported vein grafts; experiment: Isometric tension studies on rings of tube supported vein grafts; parameters: species or system New Zealand male white rabbits; conditions: for EC50: Oryctolagus cuniculus, 672 h, read-out: Sensitivity, -log10(EC50) (converted)
Protocol: (§1) Twenty-nine New Zealand male white rabbits underwent interposition bypass grafting of the right common carotid artery using the reversed ipsilateral jugular vein. In the experimental group (n=15), once the proximal anastomosis was performed, the vein was passed through a collagen tube having dimensions of 4 mm in diameter and 35 to 40 mm in length and the distal anastomosis was then completed. Leaks were repaired and the collagen tube was fashioned to completely cover the vein graft, including both anastomoses. Control animals (n=14) were treated identically but without tube support. One intraoperative death resulted from an unrecognized leak in the mid-segment of a vein graft in the experimental group. Otherwise, there were no other significant complications such as infection or bleeding in either group. […] Postoperatively, the flow rate and intraluminal pressure in vein grafts were measured on either day 3 or 28 (n=5 per group). Vein grafts were harvested on day 3 for assessment of tyrosine phosphorylation by Western blot analysis (n=4 per group), and on day 28 for morphometric measurement (n=5 per group), scanning and transmission electron microscopy (n=5 per group) and isometric tension studies (n=5 per group). On the day of harvest, animals were anesthetized and subsequently sacrificed with an intravenous overdose of barbiturates.
(§2) Vein grafts were sectioned into four 5 mm rings. In the tube supported group, the collagen tube was carefully dissected off and removed to allow unimpeded vessel contraction and relaxation. Each ring was immediately mounted between two stainless steel hooks in 5 ml organ baths containing oxygenated Krebs solution (122 mM NaCl, 4.7 mM KCl, 1 2 mM MgCl2, 2.5 mM CaCl2, 15.4 mM NaHCO3, 1.2 mM KH2PO4 and 5.5 mM glucose, maintained at 37° C. and oxygenated with 95% O2 and 5% CO2), as previously described with some modifications. In brief, following equilibration, the resting tension was adjusted in increments from 0.5 to 1.25 gms and the maximal response to a modified oxygenated Krebs solution containing 60 mM KCl, 66.7 mM NaCl, 1.2 mM MgCl2, 2.5 mM CaCl2, 15.4 mM NaHCO3, 1.2 mM KH2PO4 and 5.5 mM glucose was measured to establish a length-tension relationship. Cumulative dose response curves to the contractile agonists bradykinin (10^−9 to 10^−5 M), norepinephrine (10^−9 to 10^−4 M), and serotonin (10^−9 to 10^−4 M) were performed. Relaxation responses to acetylcholine (10^−8 to 10^−4 M), an endothelium dependent agonist, and nitroprusside (10^−8 to 10^−4 M), an endothelium independent agonist, were assessed on rings precontracted with norepinephrine, at the concentration which produced 80% of maximal contraction. All rings were allowed to re-equilibrate for a minimum of 30 minutes between each experimental run and the same sequence of agonist testing was maintained for all experiments. (All chemicals were obtained from Sigma Chemical Co. (St Louis, Mo.)).
(§3) The concentration for the half maximal response (EC50) was calculated by logistic analysis and the sensitivity is defined as -log10(EC50). In each vein graft, the sensitivity was determined for each vessel ring (4 rings per vein graft) and the mean was taken as the value for that vein graft. Values shown are the mean±s.e.m (n=5 per group). Statistical differences between the tube supported vein grafts and control vein grafts were compared using the unpaired Student's t-test.

control vein grafts = experiment: Isometric tension studies on rings of control vein grafts; parameters: species or system New Zealand male white rabbits; conditions: for EC50: Oryctolagus cuniculus, 672 h, read-out: Sensitivity, -log10(EC50) (converted); for EC50 / Sensitivity, -log10(EC50): day 28 control vein grafts without tube support, mean±s.e.m, n=5
Protocol: as §1, §2, §3

[2] = day 28 tube supported vein grafts, tube removed, mean±s.e.m, n=5

Molecule `NC[C@H](O)c1ccc(O)c(O)c1` [Norepinephrine, norepinephrine] has an EC50 [1, 2] of 1.1 µM and an EC50 (control vein grafts) of 1.07 µM.

With `[Cl-].[K+]` [KCl] the Contractile force ([1]; 60 mM KCl, tube supported vein grafts) was 300 ± 46 mg and the Contractile force (control vein grafts; 60 mM KCl, control vein grafts) was 280 ± 47 mg.

Work on `NCCc1c[nH]c2ccc(O)cc12` [Serotonin, serotonin] yielded an EC50 [1, 2] of 0.407 µM and an EC50 (control vein grafts) of 0.525 µM.

In the case of `CC(=O)OCC[N+](C)(C)C` [Acetylcholine, acetylcholine], the EC50 [1, 2] is reported as 120 µM, the Maximal relaxation ([1]; tube supported vein graft rings precontracted with norepinephrine) is reported as 64 % of precontracted tension and the “Sensitivity, -log10(EC50)” value (control vein grafts) is reported as “no response”.

For nitroprusside, the “Sensitivity, -log10(EC50)” value [1, 2] was 6.46 ± 0.12 and the “Sensitivity, -log10(EC50)” value (control vein grafts) was 6.73 ± 0.19.
